Laboratory results as given in US10913068B2, “Testing device, microfluidic chip and nucleic acid testing method” (Nanyang Technological University, priority 2015, dated 2021).
Where “and” joins values, the source holds several entries; their conditions need not be identical. Identical values can stand only once. Like-named read-outs stand apart in the source and are kept apart here.

Tests used:
[1] = tested on: AST mRNA; details: for mean Ct (± S.D.), AST: 3× dosage
Procedure: (§1) A short-term (5 days) preclinical drug toxicity experiment was performed on common black laboratory mice (Strain name: C57BL/6J; Age: 5-7 weeks). All experiments were performed in accordance with the National Institutes of Health Guide for the care and use of laboratory animals (NIH Publications No. 80-23, revised 1996) and conducted after approval by the Institutional Animal Care and Use Committee of Houston Methodist Research Institute (HMRI).
(§2) A total of eight mice were divided into two equal groups, with one mouse in each group designated as the control and the remaining three subjected to drug treatment. […] The drug was administered through intraperitoneal route, with the first group having a single dose administered on the 1st day only; and the second group having 3 doses administered on the 1st, 3rd and 5th days. The animals were subsequently euthanized following standard carbon dioxide anaesthesia procedure on the 5th day after final drug administration. The mouse liver tissues were thereafter silated, and cut into equal small pieces (˜20-30 mg) and stored in RNAlater RNA Stabilization Reagent (QIAGEN®, USA) at 4° C. to prevent RNA degradation.
(§3) Once the purified mRNA had been extracted from the liver tissue samples, 30 μL of the purified mRNA extract (i.e. elution buffer with the microbeads) was collected in an EPPENDORF® tube containing the following RT-PCR composition: 75 μL 2× SYBR Green RT-PCR reaction mix (BIORAD®, Singapore), 3.0 μL iSCRIPT™ One-Step RT-PCR reverse transcriptase (BIORAD®, Singapore) and 42 μL nuclease-free water. This 150 μL final RT-PCR assay was subsequently transferred from the EPPENDORF® tube into a 250 μL HAMILTON® glass syringe connected to the RT-PCR microfluidic chip via a 1/32″ OD tubing.
(§4) The chip-compatible thermal cycler was based on the open-source OpenPCR® (Chai Biotechnologies, USA) platform, using a custom-designed aluminium metal block for contact-based thermal cycling and an ARDUINO® microcontroller for precise temperature control (see FIG. 17—schematic diagram 1700 illustrating the multiplex microfluidic real-time RT-PCR setup).
(§5) To provide a benchmark reference to the chip disclosed herein, the same RT-PCR assays (with addition of forward/reverse primers at 0.5 μM concentration) were amplified separately in EPPENDORF® tubes on a conventional CFX96 TOUCH™ Real-Time PCR Detection System (BIORAD®, USA).
(§6) The thermal cycling process was as follows: 70° C. for 2 mins to allow dehybridization of the captured mRNA from the microbeads, followed by 50° C. for 10 minutes for reverse transcription, subsequently with an initial denaturation step of 95° C. for 5 mins and finally 35 cycles of PCR, comprising two stages: denaturation at 95° C. for 10 s and annealing/extension at 55° C. for 30 s.
(§7) To enable simultaneous fluorescent detection of amplified cDNA for a fully-quantitative methodology, the inventors developed an image capturing system embodying a camera module with blue excitation LEDs to be mounted on the chip-compatible thermal cycler disclosed herein (FIG. 19—RT-PCR and fluorescent detection setup 1900). A 3MP CMOS camera with mounted 550 nm longpass optical filter (ISLAND OPTICAL SYSTEMS®, Singapore) was fitted onto a black opaque acrylic frame with a 470 nm blue LED module (IORODEO®, USA) to provide an excitation source for the SYBR Green 1 fluorescent dye present in the RT-PCR assay. The blue LED module was affixed at an angle of ˜45° to the plane of the microfluidic chip to minimize excitation light interference on the captured light pathway of the camera unit.

[2] = tested on: β-actin mRNA (housekeeping gene); details: 3× dosage; conventional qPCR machine CFX96 Touch; control 22.93 ± 0.11
Procedure: as §1, §2, §3, §4, §5, §6, §7

[3] = tested on: ALT mRNA; details: for mean Ct (± S.D.), ALT: 3× dosage
Procedure: as §1, §2, §3, §4, §5, §6, §7

[4] = tested on: AST mRNA; details: mouse liver tissue
Procedure: as §1, §2
(§8) A liver tissue sample, weighing approximately 20-30 mg, was loaded directly into the tissue lysis chamber. The tissue sample was secured within the chamber when the tissue microhomogenizer attachment was fitted into the opening of the lysis chamber. Subsequently, 250 μL Lysis/Binding buffer was loaded into another 250 μL glass syringe (see FIG. 16, Sample Inlet), and actuated into the tissue lysis chamber at a flow rate of 200 μL/min. For tissue lysis, the microhomogenizer attachment was activated for ˜1 min to allow the liver tissue to be shredded and homogenized. After the completion of tissue lysis, the unwanted tissue debris and supernatant were removed by the micro-pillars as the homogenized tissue lysate was actuated into the mixing chamber, where the lysate was mixed with the microbeads for ˜8 mins to allow for mRNA binding.
(§9) The purified mRNA from each mouse liver tissue sample was collected in an EPPENDORF® tube preloaded with an RT-PCR master mix. To validate the efficacy of our sample preparation microfluidic chip, purified mRNA solutions extracted using our microfluidic chip was tested for their purity using the NANODROP™ 2000 (THERMOSCIENTIFIC®, Singapore), to ensure an A260/280 ratio of ˜2.0-2.2 before proceeding to the subsequent downstream applications of RT-PCR and nucleic acid detection.
as §3
as §4, with “setup). […]” for “setup).”

[5] = tested on: β-actin mRNA (housekeeping gene); details: after 1× and 3× drug dosage (200 mg/kg body wt.); mouse liver tissue
Procedure: as §1, §2, §8, §9, §3
as §4, with “setup). […]” for “setup).”

[6] = tested on: ALT mRNA; details: mouse liver tissue
Procedure: as §1, §2, §8, §9, §3
as §4, with “setup). […]” for “setup).”

[7] = 3× dosage vs untreated control, Livak ΔΔCt method, normalized to β-actin, microfluidic data
[8] = 1× drug dosage (200 mg/kg body wt., intraperitoneal, day 1 only)
[9] = 3× drug dosage (200 mg/kg body wt., intraperitoneal, days 1, 3, 5), normalized to untreated control

SMILES: O=P1(N(CCCl)CCCl)NCCCO1 (stereo not drawn) [cyclophosphamide]
- normalized fold change (up-regulation) for AST [1, 7]: 1.62 fold
- mean Ct (± S.D.), AST ([1]; Microfluidic Chip, control 20.5 ± 0.2): 19.9 and 19.9 ± 0.2
- mean Ct (± S.D.), AST ([1]; conventional qPCR machine CFX96 Touch, control 20.07 ± 0.02): 19.34 ± 0.05
- mean Ct (± S.D.), β-actin [2]: 23.02 ± 0.08
- normalized fold change (up-regulation) for ALT [3, 7]: 1.31 fold
- mean Ct (± S.D.), ALT ([3]; Microfluidic Chip, control 28.8 ± 0.2): 28.5 and 28.5 ± 0.3
- mean Ct (± S.D.), ALT ([3]; conventional qPCR machine CFX96 Touch, control 27.28 ± 0.10): 26.75 ± 0.07
- difference in final cDNA concentration (AST) compared to untreated control [4, 8]: no significant difference
- increase in final cDNA concentration for AST [4, 9]: 58.7%
- β-actin mRNA expression levels [5]: remained relatively unchanged
- difference in final cDNA concentration (ALT) compared to untreated control [6, 8]: no significant difference
- increase in final cDNA concentration for ALT [6, 9]: 33.3%
